The results in this text go back to ChEMBL document CHEMBL4732061, “Synthesis, binding, and functional properties of tetrahydroisoquinolino-2-alkyl phenones as selective σR/TMEM97 ligands” (Eur J Med Chem, 2021).

The source made the active and inactive calls. The rule behind the calls is not given here.

Series [1] concerns the target T1, Sigma intracellular receptor 2 (Rattus norvegicus, UniProt Q5U3Y7).
T1 sequence (Q5U3Y7 whole entry): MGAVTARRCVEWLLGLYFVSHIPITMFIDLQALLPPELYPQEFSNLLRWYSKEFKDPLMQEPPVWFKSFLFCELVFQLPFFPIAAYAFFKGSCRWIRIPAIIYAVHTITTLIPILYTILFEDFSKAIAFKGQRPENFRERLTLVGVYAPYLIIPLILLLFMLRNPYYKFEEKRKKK
The series is described as follows: Displacement of [125I]-RHM-4 from sigma 2 receptor in rat liver membranes after 120 mins by microbeta scintillation counting method. The series is classed as cell membranes, Membrane. For orientation: Loss of bound radioactivity is the signal in a displacement assay; it reports binding, not function.

Series [2] addresses Sigma non-opioid intracellular receptor 1 (Cavia porcellus, UniProt Q60492). In words: Displacement of [3H](+)-pentazocine from sigma 1 receptor in guinea pig brain membranes after 120 mins by microbeta scintillation counting method. The format is cell membranes, Membrane.
Series [3] concerns MCF-10A. The series is described as follows: Cytotoxicity against human MCF-10A cells assessed as reduction in cell viability incubated for 24 to 48 hrs by CCK-8 assay. The series is classed as cell-based.
The test system of series [4] is MCF7. In words: Cytotoxicity against human MCF7 cells assessed as reduction in cell viability at 1 to 100 uM incubated for 24 to 48 hrs by CCK-8 assay. The format is functional, cell-based. Conditions: dose 1-100 µM, time 24-48 hrs. In general terms: Tetrazolium dyes change colour on reduction, which living cells bring about.
For series [5], the system named is MCF-10A. The series is described as follows: Cytotoxicity against human MCF-10A cells assessed as reduction in cell viability at 1 to 100 uM incubated for 24 to 48 hrs by CCK-8 assay. The format is cell-based. As to conditions: dose lower 1 µM, time lower 24 hrs, dose upper 100 µM, time upper 48 hrs.
Series [6] addresses Sigma intracellular receptor 2 (Homo sapiens) (UniProt Q5BJF2). The series is described as follows: Antagonist activity at sigma 2 receptor in human MCF7 cells assessed as reduction in intracellular calcium release at 30 uM incubated for 3 hrs by Fluo-3 AM dye based confocal laser scanning microscopy. The format is cell-based. As to conditions: filed as antagonist.
The subject of series [7] is MCF7. The series is described as follows: Cytotoxicity against human MCF7 cells assessed as reduction in cell viability incubated for 24 to 48 hrs by CCK-8 assay. The series is classed as functional, cell-based.
In series [8] the test system is MCF7. In words: Cytotoxicity against human MCF7 cells assessed as reduction in cell viability incubated for 24 hrs by CCK-8 assay. The format is functional, cell-based.
The test system of series [9] is MCF-10A. In words: Cytotoxicity against human MCF-10A cells assessed as reduction in cell viability incubated for 24 hrs by CCK-8 assay. The format is cell-based.
Series [10] deals with MCF-10A. In words: Cytotoxicity against human MCF-10A cells assessed as reduction in cell viability incubated for 48 hrs by CCK-8 assay. The format is cell-based.
In series [11] the test system is MCF7. In words: Cytotoxicity against human MCF7 cells assessed as reduction in cell viability incubated for 48 hrs by CCK-8 assay. The series is classed as functional, cell-based. Conditions: MCF7, 48 h.
A short description of series [12]: Selectivity ratio of Ki for displacement of [3H](+)-pentazocine from sigma 1 receptor in guinea pig brain membranes to Ki for displacement of [125I]-RHM-4 from sigma2 receptor in rat liver membranes. The series is classed as cell membranes.
The test system of a further series is KYSE-140. In words: Cytotoxicity against human KYSE-140 cells assessed as reduction in cell viability incubated for 24 to 48 hrs in presence of cisplatin by CCK-8 assay. Conditions: time 24-48 hrs. The format is functional, cell-based.
In series [13] the test system is MCF7. The series is described as follows: Cytotoxicity against human MCF7 cells assessed as reduction in cell viability incubated for 24 to 48 hrs in presence of cisplatin by CCK-8 assay. The format is functional, cell-based. As to conditions: time 24-48 hrs.
A further series deals with MDA-MB-231. The series is described as follows: Cytotoxicity against human MDA-MB-231 cells assessed as reduction in cell viability incubated for 24 to 48 hrs in presence of cisplatin by CCK-8 assay. The format is functional, cell-based. Conditions: time 24-48 hrs.
Another series relates to HepG2. The series is described as follows: Cytotoxicity against human HepG2 cells assessed as reduction in cell viability incubated for 24 to 48 hrs in presence of cisplatin by CCK-8 assay. Conditions: time 24-48 hrs. The series is classed as functional, cell-based.
In series [14] the target is Sigma intracellular receptor 2 (Homo sapiens) (UniProt Q5BJF2). The series is described as follows: Agonist activity at sigma 2 receptor in human MCF7 cells assessed as stimulation of intracellular calcium release at 10 uM incubated for 3 hrs by Fluo-3 AM dye based confocal laser scanning microscopy. Conditions: filed as agonist. The format is cell-based. For orientation: Calcium assays in cells follow changes in intracellular calcium, usually with a dye or a luminescent sensor.

Setting [15] is: Homo sapiens, MCF7, 24 h, read-out: IC50.
Setting [16] is: Homo sapiens, MCF-10A, 24 h, read-out: IC50.

Sequence of Sigma intracellular receptor 2 (Homo sapiens) (Q5BJF2 whole entry): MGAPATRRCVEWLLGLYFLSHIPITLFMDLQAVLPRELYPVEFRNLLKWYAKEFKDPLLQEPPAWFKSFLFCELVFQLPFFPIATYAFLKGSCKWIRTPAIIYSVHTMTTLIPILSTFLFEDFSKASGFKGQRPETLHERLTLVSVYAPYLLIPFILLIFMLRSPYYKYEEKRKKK
Sequence of Sigma non-opioid intracellular receptor 1 (Q60492 whole entry): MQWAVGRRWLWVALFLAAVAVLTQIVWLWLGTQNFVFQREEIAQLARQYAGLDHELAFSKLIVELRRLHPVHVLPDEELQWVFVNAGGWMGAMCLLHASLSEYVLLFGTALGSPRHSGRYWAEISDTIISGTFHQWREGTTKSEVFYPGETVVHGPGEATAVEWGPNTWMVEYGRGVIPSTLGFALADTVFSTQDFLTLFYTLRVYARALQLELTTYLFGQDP

For orientation: Ki means a measure of affinity in units of concentration, obtained from inhibition or displacement. The low end stands for a stronger hold on the target, the high end for a looser hold on the target. With `COc1cc2c(c(OC)c1OC)CCN(CCC(=O)c1c(C)c(OC)c(OC)c(OC)c1OC)C2`, the Ki in series [1] was 11.5 µM; in series [2], > 1 µM.
One may read the IC50 as the midpoint of a concentration-inhibition curve. As for `COc1cc2c(cc1OC)CN(CCCC(=O)c1c(C)c(OC)c(OC)c(OC)c1OC)CC2`, the IC50 with MCF-10A [3] and with MCF7 [7] was > 100 µM each time. In the series with MCF7 [4], the outcome was inactive. Besides, the Activity entry in the series with MCF-10A [5] is “Non-Toxic”. In [6], the outcome was Active. Also, the Ki in series [1] is 0.0051 µM; in [2], > 1 µM.
Regarding `COc1cc2c(cc1OC)CN(CCCCC(=O)c1c(C)c(OC)c(OC)c(OC)c1OC)CC2`, the IC50 in the series with MCF-10A [3] and in the series on MCF7 [7] was > 100 µM in each case. In addition, the outcome with MCF7 [4] was inactive. For the same compound, the Activity entry in the series with MCF-10A [5] is recorded as “Non-Toxic”. Moreover, the outcome in [6] was Active. For the same compound, the values for the Ki in series [1] and in series [2] were 0.003 µM and 0.16 µM, respectively.
Turning to `COc1cc2c(cc1OC)CN(CCCCCCC(=O)c1c(C)c(OC)c(OC)c(OC)c1OC)CC2`, the IC50 in the series on MCF7 [8] (setting [15]) was determined as 70.7 µM; in the series on MCF-10A [9] (setting [16]), 54.2 µM; in the series with MCF-10A [10], 32.3 µM; with MCF7 [11] it was 51.1 µM. Besides, in series [6], the outcome was Active. In addition, the Ki in series [1] was 0.00133 µM; in [2] it was > 1 µM.
With `COc1cc2c(c(OC)c1OC)CCN(CCCCC(=O)c1c(C)c(OC)c(OC)c(OC)c1OC)C2`, the Ratio Ki in series [12] was > 29. Moreover, the Ki was 0.0342 µM in series [1] and > 1 µM in series [2].
Take `COc1cc2c(c(OC)c1OC)CN(CCCC(=O)c1c(C)c(OC)c(OC)c(OC)c1OC)CC2`: the Ki in series [1] and in series [2] was > 1 µM throughout.
Take `COc1cc2c(c(OC)c1OC)CN(CCCCC(=O)c1c(C)c(OC)c(OC)c(OC)c1OC)CC2`: the Ratio Ki in series [12] was > 44. In addition, the Ki in [1] was 0.0224 µM; in series [2] it was > 1 µM.
For the compound `COc1cc2c(cc1OC)CN(CCC(=O)c1c(C)c(OC)c(OC)c(OC)c1OC)CC2`, the result with KYSE-140, in the series with MCF7 [13], in the series on MDA-MB-231 and in the series with HepG2 was Active. For the same compound, the IC50 in the series with MCF7 [8] (setting [15]) came out at 11.5 µM; in the series on MCF-10A [9] (setting [16]) it was 11.9 µM; with MCF-10A [10] it was 9.77 µM; with MCF7 [11] it was 8.09 µM. Further, the Ki came out at 0.956 µM in series [1] and 3.19 µM in [2].
As to `COc1cc2c(c(OC)c1OC)CCN(CCCCCCC(=O)c1c(C)c(OC)c(OC)c(OC)c1OC)C2`, the Ratio Ki in series [12] was > 24. Also, the Ki in series [1] was 0.04 µM; in series [2] it was > 1 µM.
With `Fc1ccc(-n2cc(CCCCN3CCC4(CC3)OCc3ccccc34)c3ccccc32)cc1`, the outcome in [14] was Active.
On to `COc1cc2c(cc1OC)CN(CCCCCC(=O)c1c(C)c(OC)c(OC)c(OC)c1OC)CC2`, for which the IC50 in the series on MCF-10A [3] and in the series on MCF7 [7] was > 100 µM each time. Besides, in the series with MCF7 [4], the outcome was inactive. The Activity result in the series with MCF-10A [5] is recorded as “Non-Toxic”. The result in series [6] was Active. The results for the Ki in [1] and in series [2] were 0.00038 µM and > 1 µM, respectively.
Consider `COc1cc2c(c(OC)c1OC)CN(CCCCCC(=O)c1c(C)c(OC)c(OC)c(OC)c1OC)CC2`, for which, in series [12], the Ratio Ki is > 79. The Ki in [1] is 0.0126 µM; in series [2], > 1 µM.
Take `COc1cc2c(c(OC)c1OC)CCN(CCCCCC(=O)c1c(C)c(OC)c(OC)c(OC)c1OC)C2`: the Ratio Ki in [12] was > 50. Moreover, the results for the Ki in series [1] and in [2] were 0.0197 µM and > 1 µM, respectively.
As for `COc1cc2c(c(OC)c1OC)CN(CCCCCCC(=O)c1c(C)c(OC)c(OC)c(OC)c1OC)CC2`, the IC50 entry is “Not Active” in the series with MCF7 [8] (mcf7), “Not Active” in the series on MCF-10A [9] (mcf-10a), 23.5 µM in the series with MCF-10A [10] and 39.7 µM with MCF7 [11]. In addition, the Ki in [1] and in series [2] was > 1 µM each time.
For `COc1cc2c(c(OC)c1OC)CN(CCC(=O)c1c(C)c(OC)c(OC)c(OC)c1OC)CC2`, the IC50 in the series with MCF7 [8] (setting [15]) stood at 25.5 µM; in the series on MCF-10A [9] (setting [16]) it was 45.9 µM; in the series on MCF-10A [10], 27.4 µM; with MCF7 [11] it was 19.7 µM. Further, the figures for the Ki in series [1] and in series [2] were 3.18 µM and > 1 µM, respectively.
For `COc1cc2c(cc1OC)CN(CCCCNC(=O)c1cc(C)ccc1OC)CC2`, in series [6], the result was Active.
Regarding `COc1cc2c(c(OC)c1OC)CCN(CCCC(=O)c1c(C)c(OC)c(OC)c(OC)c1OC)C2`, the Ratio Ki in [12] was > 24. The Ki in series [1] was 0.0418 µM; in series [2], > 1 µM.
